# According to patent US8933075B2, “Compounds useful as antiviral agents, compositions, and methods of use” (priority 2010, dated 2015):
# Assays:
# [1] = test system: A/Udorn/72 (H3N2) virus; assay: Plaque assay in MDCK cells: EC50 by reduction of plaque number; type: cell-based, influenza virus; conditions: MDCK
# [2] = test system: pseudoHIV particles; assay: HIV pseudovirus assay in X4 cells (luciferase); type: cell-based, HIV-1; conditions: Human immunodeficiency virus 1, read-out: HIV EC50
# Experimental: A plasmid coding the HIV-1 genome, deleting the envelope protein gene and with a luciferase gene inserted, and a plasmid coding the envelope protein gene were cotransfected into 293T cells. After 48 hr, the supernatant containing pseudoHlV particles was collected for transducing assay. In 96 well plates, X4 cells were plated and incubated till confluent. The pseudoHlV particles were incubated with various concentrations of inhibitor compounds for one hour in room temperature. The particles were then used for tranducing X4 cells. The transduced X4 cells were lysed after 48 hr and the luciferase activity was measured in a luminometer.
SMILES,EC50 [1],EC50 [2]
COc1cc(O)cc(-c2ccc(/C=C3\SC(=S)N(C4CC5CCC4C5)C3=O)o2)c1 (centres unmarked) [Compound 17],< 100 nM,< 100 nM
COc1cc(OC)cc(-c2ccc(/C=C3\SC(=S)N(C4CC5CCC4C5)C3=O)o2)c1 (centres unmarked) [Compound 19],< 100 nM,< 100 nM
COc1cc(OC)cc(-c2ccc(/C=C3\SC(=S)N(C4C5CC6CC(C5)CC4C6)C3=O)o2)c1 (centres unmarked) [Compound 20],< 100 nM,< 100 nM
CCOC(=O)COc1cc(-c2ccc(/C=C3\SC(=S)N(C4C5CC6CC(C5)CC4C6)C3=O)o2)ccc1OC (centres unmarked) [Compound 21],< 100 nM,< 100 nM
CCOC(=O)COc1cc(-c2ccc(/C=C3\SC(=S)N(C4CC5CCC4C5)C3=O)o2)ccc1OC (centres unmarked) [Compound 22],< 100 nM,< 100 nM
COc1ccc(-c2ccc(/C=C3\SC(=S)N(C4C5CC6CC(C5)CC4C6)C3=O)o2)cc1O (centres unmarked) [Compound 23],< 100 nM,< 100 nM
CCOC(=O)COc1cc(-c2ccc(/C=C3\SC(=S)N(C4CC5CCC4C5)C3=O)o2)cc(OC)c1OC (centres unmarked) [Compound 29],< 100 nM,< 100 nM
CCOC(=O)COc1cc(-c2ccc(/C=C3\SC(=S)N(C4C5CC6CC(C5)CC4C6)C3=O)o2)cc(OC)c1OC (centres unmarked) [Compound 30],< 100 nM,< 100 nM
COC(=O)c1cc(-c2ccc(/C=C3\SC(=S)N(C4CC5CCC4C5)C3=O)o2)cc(OC)c1OC (centres unmarked) [Compound 31],< 100 nM,< 100 nM
COC(=O)c1cc(-c2ccc(/C=C3\SC(=S)N(C4C5CC6CC(C5)CC4C6)C3=O)o2)cc(OC)c1OC (centres unmarked) [Compound 32],< 100 nM,< 100 nM
COc1ccc(-c2ccc(/C=C3\SC(=S)N(C4C5CC6CC(C5)CC4C6)C3=O)o2)cc1OCC(=O)O (centres unmarked) [Compound 33],< 100 nM,< 100 nM
COc1cc(OCC(=O)O)cc(-c2ccc(/C=C3\SC(=S)N(C4CC5CCC4C5)C3=O)o2)c1 (centres unmarked) [Compound 37],< 100 nM,< 100 nM
COc1cc(OCC(=O)N[C@@H](Cc2ccccc2)C(=O)O)cc(-c2ccc(/C=C3\SC(=S)N(C4CC5CCC4C5)C3=O)o2)c1 (some centres unmarked) [Compound 83],< 100 nM,< 100 nM
COc1cc(OCC(=O)N2CCC[C@H]2C(=O)O)cc(-c2ccc(/C=C3\SC(=S)N(C4CC5CCC4C5)C3=O)o2)c1 (some centres unmarked) [Compound 84],< 100 nM,< 100 nM
COc1ccc(-c2ccc(/C=C3\SC(=S)N(C4CC5CCC4C5)C3=O)o2)cc1C(=O)N[C@@H](Cc1ccc(O)cc1)C(=O)O (some centres unmarked) [Compound 86],< 100 nM,< 100 nM
O=C1/C(=C/c2oc(-c3ccccc3)cc2CO)SC(=S)N1C1C2CC3CC(C2)CC1C3 (centres unmarked) [Compound 92],< 100 nM,100 to 250 nM
COc1cc(OC)cc(-c2cc(CCCO)c(/C=C3\SC(=S)N(C4C5CC6CC(C5)CC4C6)C3=O)o2)c1 (centres unmarked) [Compound 95],< 100 nM,< 100 nM
O=C1/C(=C/c2oc(-c3ccc(Cl)cc3)cc2CCCO)SC(=S)N1C1CC2CCC1C2 (centres unmarked) [Compound 99],< 100 nM,< 100 nM
COc1cc(O)cc(-c2cc(CCCO)c(/C=C3\SC(=S)N(C4CC5CCC4C5)C3=O)o2)c1 (centres unmarked) [Compound 101],< 100 nM,< 100 nM
COc1cc(O)cc(-c2cc(CCCC(C(=O)O)C(=O)O)c(/C=C3\SC(=S)N(C4CC5CCC4C5)C3=O)o2)c1 (centres unmarked) [Compound 137],,< 100 nM
COC(=O)COc1ccc2c(O)c(-c3ccc(/C=C4\SC(=S)N(C5CC6CCC5C6)C4=O)o3)c(=O)oc2c1 (centres unmarked) [Compound 318],< 100 nM,
COC(=O)COc1ccc2c(O)c(-c3ccc(/C=C4\SC(=S)N(C5C6CC7CC(C6)CC5C7)C4=O)o3)c(=O)oc2c1 (centres unmarked) [Compound 319],< 100 nM,
CCCCCc1ccc2oc(=O)c(-c3ccc(/C=C4\SC(=S)N(C5CC6CCC5C6)C4=O)o3)c(O)c2c1 (centres unmarked) [Compound 320],< 100 nM,
O=C1/C(=C/c2ccc(-c3c(O)c4cc(OCc5ccc(Cl)cc5)ccc4oc3=O)o2)SC(=S)N1C1CC2CCC1C2 (centres unmarked) [Compound 321],< 100 nM,
O=C1/C(=C/c2ccc(-c3c(O)c4cc(Cl)ccc4oc3=O)o2)SC(=S)N1C1CC2CCC1C2 (centres unmarked) [Compound 322],< 100 nM,
O=C1/C(=C/c2ccc(-c3c(O)c4ccc(OC5CCCCC5)cc4oc3=O)o2)SC(=S)N1C1CC2CCC1C2 (centres unmarked) [Compound 323],< 100 nM,
O=C1/C(=C/c2ccc(-c3c(O)c4ccc(O)cc4oc3=O)o2)SC(=S)N1C1CC2CCC1C2 (centres unmarked) [Compound 324],< 100 nM,
O=C1/C(=C/c2ccc(-c3c(O)c4cc(O)ccc4oc3=O)o2)SC(=S)N1C1CC2CCC1C2 (centres unmarked) [Compound 325],< 100 nM,

SMILES,EC50 [1],EC50 [2]
COc1cc(COc2ccc3oc(=O)c(-c4ccc(/C=C5\SC(=S)N(C6CC7CCC6C7)C5=O)o4)c(O)c3c2)cc(OC)c1 (centres unmarked) [Compound 326],< 100 nM,
O=C1/C(=C/c2oc(-c3ccc(Cl)cc3)cc2CCCCO)SC(=S)N1C1CC2CCC1C2 (centres unmarked) [Compound 333],< 100 nM,
O=C1/C(=C/c2oc(-c3ccc(Cl)cc3)cc2CCCCCO)SC(=S)N1C1C2CC3CC(C2)CC1C3 (centres unmarked) [Compound 334],< 100 nM,
O=C1/C(=C/c2oc(-c3ccc(Cl)cc3)cc2CCCCO)SC(=S)N1C1C2CC3CC(C2)CC1C3 (centres unmarked) [Compound 335],< 100 nM,
COc1ccc2oc(=O)c(CCC(=O)OCCCc3cc(-c4ccc(Cl)cc4)oc3/C=C3\SC(=S)N(C4CC5CCC4C5)C3=O)c(O)c2c1 (centres unmarked) [Compound 336],< 100 nM,
O=C1/C(=C/c2oc(-c3ccc(C(F)(F)F)cc3)cc2CCCCCO)SC(=S)N1C1CC2CCC1C2 (centres unmarked) [Compound 337],< 100 nM,
O=C1/C(=C/c2oc(-c3ccc(C(F)(F)F)cc3)cc2CCCCCO)SC(=S)N1C1C2CC3CC(C2)CC1C3 (centres unmarked) [Compound 338],< 100 nM,
O=C1/C(=C/c2oc(-c3ccc(OC(F)(F)F)cc3)cc2CCCCCO)SC(=S)N1C1C2CC3CC(C2)CC1C3 (centres unmarked) [Compound 339],< 100 nM,
O=C1/C(=C/c2oc(-c3ccc(OC(F)(F)F)cc3)cc2CCCCCO)SC(=S)N1C1CC2CCC1C2 (centres unmarked) [Compound 340],< 100 nM,
COc1ccc(-c2cc(CCCCCO)c(/C=C3\SC(=S)N(C4CC5CCC4C5)C3=O)o2)cc1 (centres unmarked) [Compound 341],< 100 nM,
COc1ccc(-c2cc(CCCCCO)c(/C=C3\SC(=S)N(C4C5CC6CC(C5)CC4C6)C3=O)o2)cc1 (centres unmarked) [Compound 342],< 100 nM,
O=C1/C(=C/c2oc(-c3cccc(F)c3)cc2CCCCCO)SC(=S)N1C1CC2CCC1C2 (centres unmarked) [Compound 343],< 100 nM,
O=C1/C(=C/c2oc(-c3cccc(F)c3)cc2CCCCCO)SC(=S)N1C1C2CC3CC(C2)CC1C3 (centres unmarked) [Compound 344],< 100 nM,
O=C1/C(=C/c2oc(-c3cccc(Cl)c3)cc2CCCCCO)SC(=S)N1C1CC2CCC1C2 (centres unmarked) [Compound 345],< 100 nM,
O=C1/C(=C/c2oc(-c3cccc(Cl)c3)cc2CCCCCO)SC(=S)N1C1C2CC3CC(C2)CC1C3 (centres unmarked) [Compound 346],< 100 nM,
COc1cccc(-c2cc(CCCCCO)c(/C=C3\SC(=S)N(C4C5CC6CC(C5)CC4C6)C3=O)o2)c1 (centres unmarked) [Compound 347],< 100 nM,
COc1cccc(-c2cc(CCCCCO)c(/C=C3\SC(=S)N(C4CC5CCC4C5)C3=O)o2)c1 (centres unmarked) [Compound 348],< 100 nM,
COc1ccc(-c2cc(CCCO)c(/C=C3\SC(=O)N(C4CC5CCC4C5)C3=O)o2)cc1OCC(=O)N1CCC[C@H]1C(=O)O (some centres unmarked) [Compound 349],< 100 nM,
COc1cc(OCC(=O)N2CCC[C@H]2C(=O)O)cc(-c2cc(CCCO)c(/C=C3\SC(=S)N(C4CC5CCC4C5)C3=O)o2)c1 (some centres unmarked) [Compound 350],< 100 nM,
COc1cccc(-c2cc(CCCO)c(/C=C3\SC(=S)N(C4C5CC6CC(C5)CC4C6)C3=O)o2)c1 (centres unmarked) [Compound 352],< 100 nM,
COc1cccc(-c2cc(CCCO)c(/C=C3\SC(=S)N(C4CC5CCC4C5)C3=O)o2)c1 (centres unmarked) [Compound 353],< 100 nM,
COc1cccc(-c2cc(CCCOC(=O)[C@@H](CC(N)=O)NC(=O)OC(C)(C)C)c(/C=C3\SC(=S)N(C4C5CC6CC(C5)CC4C6)C3=O)o2)c1 (some centres unmarked) [Compound 354],< 100 nM,
COc1cc(OC)cc(-c2cc(CCCCCOC(=O)[C@]3(O)C[C@@H](O)[C@@H](O)[C@H](O)C3)c(/C=C3\SC(=S)N(C4CC5CCC4C5)C3=O)o2)c1 (some centres unmarked) [Compound 356],< 100 nM,
COc1cc(OC)cc(-c2cc(CCCCOC(=O)[C@]3(O)C[C@@H](O)[C@@H](O)[C@H](O)C3)c(/C=C3\SC(=S)N(C4CC5CCC4C5)C3=O)o2)c1 (some centres unmarked) [Compound 357],< 100 nM,
COc1cc(OC)cc(-c2cc(CCCCN3CCOCC3)c(/C=C3\SC(=S)N(C4CC5CCC4C5)C3=O)o2)c1 (centres unmarked) [Compound 359],< 100 nM,
COc1cc(OC)cc(-c2cc(CCCCCN3CCOCC3)c(/C=C3\SC(=S)N(C4CC5CCC4C5)C3=O)o2)c1 (centres unmarked) [Compound 360],< 100 nM,
CC(C)(C)OC(=O)N[C@@H](CC(N)=O)C(=O)N1CCN(CCCCCc2cc(-c3ccc(Cl)cc3)oc2/C=C2\SC(=S)N(C3C4CC5CC(C4)CC3C5)C2=O)CC1 (some centres unmarked) [Compound 373],< 100 nM,
